Reference: publication PMC4707675 (ACS infectious diseases, 2015)
Where two headings read alike, the source gives them in different places.

Columns and labels:
[1] = tested on: DHFR-overexpressing strain of Mtb (DHFR-oe); assay type: cell-based, Mycobacterium tuberculosis
[2] = tested on: DHFR-overexpressing strain of Mtb (DHFR-oe); conditions: ref Nixon et al.[15]; cited from earlier work

Structure (SMILES) | MIC90 DHFR-oe [1] | MIC90 DHFR-oe [2]
N#Cc1ccc(Cn2ccc3c4c(N)nc(N)nc4ccc32)cc1 [PQD-1] | >2 µM | –
CC1(C)N=C(N)N=C(N)N1OCCCOc1cc(Cl)c(Cl)cc1Cl [WR99210] | 15 to 30 µM | –
COc1cc(NCc2ccc3nc(N)nc(N)c3c2C)cc(OC)c1OC [Trimetrexate] | – | >100 µM
